Test results published in US20170044230A1 (USTAV ORGANICKE CHEMIE A BIOCHEMIE AV CR, V.V.I., priority 2014, published 2017).
“Also recorded” adds a separate entry of the source. Non-standard residues stand in square brackets, D forms with d. Residues, ends and D or L forms follow the SMILES beside them. *: point of attachment. 1Nal = N[C@@H](Cc1cccc2ccccc12)C(=O)O; Myristoyl = CCCCCCCCCCCCCC(=O)*; Dap = NC[C@H](N)C(=O)O; Sar = CNCC(=O)O

Assays:
human GHS-R1a receptor = biological target: T1, human GHS-R1a receptor (Homo sapiens, UniProt Q92847); assay: Competitive binding studies (displacement of 125I-ghrelin); settings: relative to ghrelin = 100
T1 construct: purchased Multispan, Hayward, Calif., USA; host or cells: HEK293T cells, isolated plasma membranes
Protocol: Isolated plasma membranes from the HEK293T cells with transfected human GHS-R1a receptor (Multispan, Hayward, Calif., USA) were used. […] Experiments were carried out in duplicates at least three times. Competitive binding curves were plotted using GraphPad Prism Software (San Diego, Calif., USA) while comparing the best fit for single binding sites models.

fed C57BL/6 male mice = assay: Effect of SC administered ghrelin analogs on food intake; type: in vivo; settings: for maximal effect at 5 mg/kg on food intake: SC 5 mg/kg, evaluated 480 min after administration; for ED50 (250 min after injection), effect on food intake: SC
Protocol: All of the experiments followed the ethical guidelines for animal experiments and Czech Republic law 246/1992 and were approved by the committee for experiments with laboratory animals of the Academy of Sciences of the Czech Republic. Male C57BL/6 mice (Charles River, Germany) were housed at a temperature 22±2° C. under a daily cycle of 12/12 h light/dark (light from 6:00) with free access to water and a standard chow diet St-1 which contained […] of calories from protein, fat and carbohydrate, respectively, and its energy content was 3.4 kcal/g (Mlýn Kocanda, Praha, Czech Republic). Mice were placed into separate cages for one week before experiment, they had free access to water and food pellets. Closely before the experiment, the food pellets were removed from the cages. […] 15 min after the injection, mice were given preweighed food pellets. Food intake was monitored for 8-10 hours at 30-min intervals. Mice had free access to water during the experiment. Experiments were performed at least twice for each tested compound, each experimental group had at least 5 mice.
Data from food intake experiments were analyzed by one-way ANOVA followed by Dunnett's post-hoc test using GraphPad Prism Software (San Diego, Calif., USA), P<0.05 was considered statistically significant. ED50 values were calculated using GraphPad Prism Software as the dose of the tested compound required to elicit half-maximal effect at 250 min after administration of the corresponding compound.
Food intake was monitored for […] after administration of the compounds. ED50 values were determined 250 min after administration. Maximal effect on food intake was evaluated […] after administration of the compounds at a dose of 5 mg/kg of body weight. NT—not tested.

[1] = tested on: rat model of subtotal nephrectomy; assay: Rat model of renal cachexia (subtotal nephrectomy, SNx); type: in vivo
Protocol: Male F344 rats (Harlan, Italy) were housed at a temperature of 22±2° C. under a daily cycle of 12/12 h light/dark (light from 6:00) with free access to water and a standard chow diet St-1 (Mlýn Kocanda, Praha, Czech Republic).
To induce renal dysfunction, 5/6 nephrectomy was performed to anesthetized 8-week-old rats (SNx group, n=14); the control group was sham-operated (Sham group, n=6). Starting from the following day, the rats were SC injected with saline or ghrelin analog no. 2 (5 mg/kg of body weight, dissolved in saline) for 15 days. Food intake and body weight of the rats was monitored every day. At the end of the experiment, blood was collected for determination of pro-inflammatory cytokines using the Milliplex MAP Rat Cytokine/Chemokine Magnetic Bead Panel (Merck-Millipore, St. Charles, Mo., USA).

[2] = tested on: rat model of aortic stenosis-induced cachexia; assay: Rat model of aortic stenosis-induced cachexia; type: in vivo; settings: 28-day continuous IP infusion
Protocol: Cachexia induced through the aortic stenosis (AS) was made in male Wistar rats, aged 8-9 months (Harlan, Italy). Rats were housed at a temperature of 22±2° C. under a daily cycle of 12/12 h light/dark (light from 6:00) with free access to water and a standard chow diet (Altromin, Germany).
The animals were anesthetized with isoflurane and the aortic stenosis was induced via abdominal incision. […] A steel wire (diameter 0.4 mm) was placed alongside the isolated aorta, both were gently tightened with a stitch (3-0 silk tread), and the wire was removed accordingly. […] Finally, the abdomen was sutured and the animals were kept in standard conditions with free access to regular rat chow and water ad libitum. The Sham group consisted of sham-operated rats prepared by a similar surgical treatment without aortic stenosis.
Mortality was about 5% within 72 h after stenosis. All animal experiments were approved by the Institutional Animal Experimental Ethics Committee of the Institute of Physiology AS CR. […] 2 dissolved in vehicle (2.5 mg/kg of body weight per day) for 28 days (n=5). Food intake and body weight of the rats was monitored every day.

[3] = Pharmacokinetics in vivo after SC administration to mice; settings: SC 5 mg/kg
Protocol: Mice were housed at a temperature 22±2° C. under a daily cycle of 12/12 h light/dark (light from 6:00) with free access to water and a standard chow diet St-1 (Mlýn Kocanda, Praha, Czech Republic).
4, 6, 14 and 18 at a dose of 5 mg/kg of body weight (0.2 ml/mouse, n=4). Blood was collected from tails before injection and 0.5, 1, 2, 4, 8, 16 and 24 h after injection. Plasma was separated and stored at −20° C.

[4] = tested on: 4-5-week old male C57BL/6 mice; assay: Growth hormone (GH) release after SC administration to young mice; type: in vivo; settings: 10 min after SC 5 mg/kg
Protocol: 4 and 14 at a dose of 5 mg/kg of body weight (0.2 ml/mouse). 10 min after the injection, blood was collected, plasma was prepared and stored at −20° C. until use. GH levels in the plasma samples were determined by Rat/Mouse Growth Hormone ELISA kit (Merck-Millipore, St. Charles, Mo., USA). Ghrelin analogs no.

[5] = 15-day SC 5 mg/kg, vs SNx/saline, 5 mg/kg

T1 sequence (Q92847 whole entry): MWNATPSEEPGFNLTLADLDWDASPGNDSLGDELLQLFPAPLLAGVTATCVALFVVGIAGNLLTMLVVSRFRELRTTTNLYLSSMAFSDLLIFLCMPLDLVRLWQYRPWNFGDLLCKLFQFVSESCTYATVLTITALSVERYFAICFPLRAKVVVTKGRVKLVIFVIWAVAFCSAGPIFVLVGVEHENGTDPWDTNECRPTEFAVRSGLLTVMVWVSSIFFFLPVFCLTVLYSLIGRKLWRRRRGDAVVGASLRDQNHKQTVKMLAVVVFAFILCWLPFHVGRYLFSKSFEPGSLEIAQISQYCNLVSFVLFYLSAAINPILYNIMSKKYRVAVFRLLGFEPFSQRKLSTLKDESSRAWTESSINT

## CCCCCCCCCCCCCC(=O)NC[C@H](NC(=O)[C@H](CO)NC(=O)CNC)C(=O)N[C@@H](Cc1ccccc1)C(=O)N[C@@H](CC(C)C)C(=O)N[C@@H](CO)C(=O)N1CCC[C@H]1C(=O)N[C@@H](CCC(=O)O)C(=O)N[C@@H](Cc1c[nH]cn1)C(=O)N[C@@H](CCC(N)=O)C(=O)N[C@@H](CCCCN)C(=O)N[C@@H](C)C(=O)N[C@@H](CCC(N)=O)C(=O)N[C@@H](CCC(N)=O)C(=O)N[C@@H](CCCNC(=N)N)C(=O)N[C@@H](CCCCN)C(=O)N[C@@H](CCC(=O)O)C(=O)N[C@@H](CO)C(=O)N[C@@H](CCCCN)C(=O)N[C@@H](CCCCN)C(=O)N1CCC[C@H]1C(=O)N1CCC[C@H]1C(=O)N[C@@H](C)C(=O)N[C@@H](CCCCN)C(=O)N[C@@H](CC(C)C)C(=O)N[C@@H](CCC(N)=O)C(=O)N1CCC[C@H]1C(=O)N[C@@H](CCCNC(=N)N)C(=O)O [Analog 2]
Human GHS-R1a receptor
  % of ghrelin binding: 54%
Fed C57BL/6 male mice
  maximal effect at 5 mg/kg on food intake: 202.7 % of Dpr^3ghr
Fed C57BL/6 male mice; fed mice
  ED50 (250 min after injection), effect on food intake: 3.80 mg/kg
[1]; 15-day SC 5 mg/kg, vs SNx/saline
  levels of anti-inflammatory cytokine IL-10 (in words): significantly increased
[1]; [5]
  body weight of SNx rats: significantly increased body weight
  levels of pro-inflammatory cytokines (in words): significantly decreased levels of these cytokines; also recorded: reduced blood levels of pro-inflammatory cytokines
[1]; repeated SC administration, SNx rats
  cachectic state: improved the cachectic state
[2]
  cachectic state: improved the cachectic state
[2]; 2.5 mg/kg per day
  body weight of AS rats: significantly increased body weight

## CCCCCCCCCCCCCC(=O)NC[C@H](NC(=O)[C@H](CO)NC(=O)CNC)C(=O)N[C@@H](Cc1cccc2ccccc12)C(=O)N[C@@H](CC(C)C)C(=O)N[C@@H](CO)C(=O)N1CCC[C@H]1C(=O)N[C@@H](CCC(=O)O)C(=O)N[C@@H](Cc1c[nH]cn1)C(=O)N[C@@H](CCC(N)=O)C(=O)N[C@@H](CCCCN)C(=O)N[C@@H](C)C(=O)N[C@@H](CCC(N)=O)C(=O)N[C@@H](CCC(N)=O)C(=O)N[C@@H](CCCNC(=N)N)C(=O)N[C@@H](CCCCN)C(=O)N[C@@H](CCC(=O)O)C(=O)N[C@@H](CO)C(=O)N[C@@H](CCCCN)C(=O)N[C@@H](CCCCN)C(=O)N1CCC[C@H]1C(=O)N1CCC[C@H]1C(=O)N[C@@H](C)C(=O)N[C@@H](CCCCN)C(=O)N[C@@H](CC(C)C)C(=O)N[C@@H](CCC(N)=O)C(=O)N1CCC[C@H]1C(=O)N[C@@H](CCCNC(=N)N)C(=O)O [Analog 4] (H-[Sar]S[Dap](Myristoyl)[1Nal]LSPEHQKAQQRKESKKPPAKLQPR-OH; N-terminus and C-terminus assumed)
Human GHS-R1a receptor
  % of ghrelin binding: 57%
Fed C57BL/6 male mice
  maximal effect at 5 mg/kg on food intake: 212.8 % of Dpr^3ghr
Fed C57BL/6 male mice; SC 0.2, 1, 5 and 10 mg/kg, fed mice
  orexigenic effect (cumulative food intake), dose dependence: dose-dependent orexigenic effect
Fed C57BL/6 male mice; fed mice
  ED50 (250 min after injection), effect on food intake: 6.02 mg/kg
[3]
  stability in vivo compared with ghrelin or Dpr^3ghrelin: significantly more stable than ghrelin or Dpr^3ghrelin
[4]
  GH levels in plasma: did not alter the GH levels
